Data reported in PubChem BioAssay AID1919008 (Molecular Pharmacology Branch, DTP, NCI, 2023).
Several values for one entry are separate records, joined by “and”; a condition that tells them apart may be missing. Equal entries are not always repeated.

Test system: DMS-114 complex spheroids with HUVEC/MSC, growth % test/control
Experiment: Anticancer human tumor DMS-114 cell line growth inhibition [AhR];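 note: spheroids exposed to agents for 7 days before readout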;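 for viability, T/C: 100% = DMSO vehicle control wells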
Details: for viability, T/C: stronger effect = lower value
Source text: Multicellular complex tumor spheroid response to aryl hydrocarbon receptor antagonists in combination with a variety of drugs and investigational agents in selected tumor cell lines
The current study was undertaken to assess response to aryl hydrocarbon receptor antagonists in combination with standard-of-care drugs and investigational agents in solid tumor complex spheroid models. Complex spheroids include a stromal component modeled by human endothelial cells (HUVEC) and fibroblasts modeled by human mesenchymal stem cells (MSCs). The concentration ranges selected for each drug and investigational agent were based upon clinically achievable concentrations if the clinical Cmax of the agent was known.
Compounds. The drugs and investigational agents: BAY 2416964 (NSC825713), GNF351 (NSC835774), CH-223191 (NSC835775), CPI-455 (NSC825282), aza-TdCyd (NSC777586), decitabine (NSC127716), belinostat (NSC758774), entinostat (NSC756642), pevonedistat (NSC761192), tazemetostat (NSC777109), talazoparib (NSC765396), olaparib (NSC753686), selinexor (NSC780203), nedisertib (M3814, NSC802822), bortezomib (NSC756655), venetoclax (NSC766270), doxorubicin (NSC123127), elimusertib (BAY189344, NSC800525), ceralasertib (AZD6738, NSC777638), TAK-243 (NSC785004), alisertib (NSC759677), etoposide (NSC141540), topotecan (NSC609699), eribulin (NSC707389), gemcitabine (NSC613327), carboplatin (NSC241240), cisplatin (NSC119875), and SN-38 (NSC673596) were obtained from the National Cancer Institute (NCI) Developmental Therapeutics Program Chemical Repository (32). The FDA-approved anticancer drug set is available from the Developmental Therapeutics Program at https://dtp.cancer.gov/organization/dscb/obtaining/available plates.htm. […] The stock solutions were prepared in dimethyl sulfoxide (DMSO, Sigma-Aldrich, St. Louis, MO, cat. D2650), except for the platinum compounds which were prepared in saline (Quality Biological, Gaithersburg, MD, cat. 114-055-101), at 800-fold the tested concentration and stored at -70 degrees C prior to their use. All drugs and investigational agents were tested over a range starting from a high concentration at or near the clinical Cmax and decreasing in half-log increments. If the clinical Cmax for an agent had not been determined, the highest concentration tested was 10 microM (Table 1).
Cell Culture. All cells were maintained in an incubator at 37 degrees C and 5% CO2 with 95% humidity. The PDC lines were cultured according to standard operating procedures established by the NCI PDMR (https://pdmr.cancer.gov). Briefly, all PDCs were thawed and cultured in Matrigel-coated flasks prepared with a working solution of 1X Ham's F-12 nutrient mix, without supplementation (Invitrogen, Waltham, MA, cat. 11765054), 100 U/mL penicillin-streptomycin (Invitrogen, cat. 15140122), and 2.5% Matrigel (Corning Inc., Corning, NY, cat. 354248) for the first three passages. All PDCs were cultured in complete DMEM/F-12 media containing advanced DMEM/F-12 (Invitrogen, cat. 12634028), 4.9% defined fetal bovine serum, heat inactivated (HyClone Laboratories Inc., Logan, UT, cat. SH30070.03HI), 389 ng/mL hydrocortisone (Sigma-Aldrich, cat. H4001), 9.7 ng/mL human EGF recombinant protein (Invitrogen, cat. PHG0313), 23.4 microg/mL adenine (Sigma-Aldrich, cat. A2786), 97.3 U/mL penicillin-streptomycin (Invitrogen, cat. 15140122), 1.9 mM L-glutamine (Invitrogen, cat. 25030081), and 9.7 microM Y-27632 dihydrochloride (Tocris Bioscience, Bristol, United Kingdom, cat. 1254). The PDCs were cultured in complete DMEM/F12 media without 10 microM Y-27632 dihydrochloride for at least two passages prior to the screen. The established cell lines NCI-H1341 and […] were cultured in DMEM/F-12, HEPES (Invitrogen, cat. 11330032), 5% defined fetal bovine serum (HyClone Laboratories Inc., cat. SH30070.03), ITS premix universal culture supplement [insulin (5 microg/mL), transferrin (5 microg/mL), and selenious acid (5 ng/mL)] […]

[1] = curve of first compound, second compound 0.1 µM
[2] = curve of first compound, second compound 0.316 µM
[3] = curve of first compound, second compound 1 µM
[4] = curve of first compound, second compound 3.16 µM
[5] = curve of first compound, second compound 10 µM
[6] = second compound 0.1 µM, first compound 0.0316 µM
[7] = second compound 0.1 µM, first compound 0.1 µM
[8] = second compound 0.1 µM, first compound 0.316 µM
[9] = second compound 0.1 µM, first compound 1 µM
[10] = second compound 0.1 µM, first compound 3.16 µM
[11] = second compound 0.1 µM, first compound 10 µM
[12] = second compound 0.316 µM, first compound 0.0316 µM
[13] = second compound 0.316 µM, first compound 0.1 µM
[14] = second compound 0.316 µM, first compound 0.316 µM
[15] = second compound 0.316 µM, first compound 1 µM
[16] = second compound 0.316 µM, first compound 3.16 µM
[17] = second compound 0.316 µM, first compound 10 µM
[18] = second compound 1 µM, first compound 0.0316 µM
[19] = second compound 1 µM, first compound 0.1 µM
[20] = second compound 1 µM, first compound 0.316 µM
[21] = second compound 1 µM, first compound 1 µM
[22] = second compound 1 µM, first compound 3.16 µM
[23] = second compound 1 µM, first compound 10 µM
[24] = second compound 3.16 µM, first compound 0.0316 µM
[25] = second compound 3.16 µM, first compound 0.1 µM
[26] = second compound 3.16 µM, first compound 0.316 µM
[27] = second compound 3.16 µM, first compound 1 µM
[28] = second compound 3.16 µM, first compound 3.16 µM
[29] = second compound 3.16 µM, first compound 10 µM
[30] = second compound 10 µM, first compound 0.0316 µM
[31] = second compound 10 µM, first compound 0.1 µM
[32] = second compound 10 µM, first compound 0.316 µM
[33] = second compound 10 µM, first compound 1 µM
[34] = second compound 10 µM, first compound 3.16 µM
[35] = second compound 10 µM, first compound 10 µM

CC1(C)CCC(CN2CCN(c3ccc(C(=O)NS(=O)(=O)c4ccc(NCC5CCOCC5)c([N+](=O)[O-])c4)c(Oc4cnc5[nH]ccc5c4)c3)CC2)=C(c2ccc(Cl)cc2)C1 + Cc1cncc(-c2nc(NCCc3c[nH]c4ccccc34)c3ncn(C(C)C)c3n2)c1
IC50 [1]: > 10000 nM
IC50 [2]: > 10000 nM
IC50 [3]: > 10000 nM
IC50 [4]: > 10000 nM
IC50 [5]: 6390 nM
viability, T/C [6]: 91.9%
viability, T/C [7]: 92.7%
viability, T/C [8]: 101%
viability, T/C [9]: 106%
viability, T/C [10]: 94.9%
viability, T/C [11]: 110%
viability, T/C [12]: 91.5%
viability, T/C [13]: 95.7%
viability, T/C [14]: 95.5%
viability, T/C [15]: 107%
viability, T/C [16]: 102%
viability, T/C [17]: 98.9%
viability, T/C [18]: 102%
viability, T/C [19]: 102%
viability, T/C [20]: 108%
viability, T/C [21]: 97.6%
viability, T/C [22]: 110%
viability, T/C [23]: 101%
viability, T/C [24]: 96.8%
viability, T/C [25]: 86.8%
viability, T/C [26]: 93.8%
viability, T/C [27]: 103%
viability, T/C [28]: 96.3%
viability, T/C [29]: 84.7%
viability, T/C [30]: 50.9%
viability, T/C [31]: 60.2%
viability, T/C [32]: 58.3%
viability, T/C [33]: 47.8%
viability, T/C [34]: 45%
viability, T/C [35]: 53.7%

CC(C)c1c(-c2ccccc2)nc2c(C#N)c[nH]n2c1=O + Cc1ccccc1N=Nc1ccc(NC(=O)c2ccnn2C)c(C)c1
IC50 [1]: > 10000 nM
IC50 [2]: > 10000 nM
IC50 [3]: > 10000 nM
IC50 [4]: > 10000 nM
IC50 [5]: > 10000 nM
viability, T/C [6]: 104%
viability, T/C [7]: 108%
viability, T/C [8]: 105%
viability, T/C [9]: 103%
viability, T/C [10]: 113%
viability, T/C [11]: 95.9%
viability, T/C [12]: 95.5%
viability, T/C [13]: 97.7%
viability, T/C [14]: 98.9%
viability, T/C [15]: 94.3%
viability, T/C [16]: 95.9%
viability, T/C [17]: 101%
viability, T/C [18]: 95.3%
viability, T/C [19]: 96.8%
viability, T/C [20]: 102%
viability, T/C [21]: 103%
viability, T/C [22]: 95.3%
viability, T/C [23]: 99.2%
viability, T/C [24]: 96%
viability, T/C [25]: 95.8%
viability, T/C [26]: 93%
viability, T/C [27]: 96.3%
viability, T/C [28]: 107%
viability, T/C [29]: 102%
viability, T/C [30]: 98.3%
viability, T/C [31]: 96.9%
viability, T/C [32]: 95.6%
viability, T/C [33]: 90.5%
viability, T/C [34]: 94.7%
viability, T/C [35]: 88.8%

Nc1ncn(C2CC(O)C(CO)S2)c(=O)n1 (centres undefined)
viability, T/C (compound 0.000949 µM): 97.3% and 101% and 110%
viability, T/C (compound 0.003 µM): 108% and 102% and 116%
viability, T/C (compound 0.00949 µM): 112% and 104% and 102%
viability, T/C (compound 0.03 µM): 88.5% and 101% and 88.9%
viability, T/C (compound 0.0949 µM): 60.1% and 107% and 84.8%
viability, T/C (compound 0.3 µM): 46.1% and 86.9% and 52.9%
IC50 (curve of compound): 222 nM and > 300 nM

O=C(C=Cn1cnc(-c2cc(C(F)(F)F)cc(C(F)(F)F)c2)n1)NNc1cnccn1
viability, T/C (compound 0.00949 µM): 106% and 109% and 113%
viability, T/C (compound 0.03 µM): 96.6% and 110% and 97.4%
viability, T/C (compound 0.0949 µM): 64.5% and 108% and 80.5%
viability, T/C (compound 0.3 µM): 40.7% and 87.3% and 37.6%
viability, T/C (compound 0.949 µM): 15% and 48.7% and 18.4%
viability, T/C (compound 3 µM): 5.6% and 17.9% and 7.48%
IC50 (curve of compound): 189 nM and 901 nM and 221 nM

NS(=O)(=O)OCC1CC(n2ccc3c(NC4CCc5ccccc54)ncnc32)CC1O (centres undefined) + Cc1ccccc1N=Nc1ccc(NC(=O)c2ccnn2C)c(C)c1
IC50 [1]: 229 nM
IC50 [2]: 203 nM
IC50 [3]: 201 nM
IC50 [4]: 228 nM
IC50 [5]: 215 nM
viability, T/C [6]: 137%
viability, T/C [7]: 84.8%
viability, T/C [8]: 37%
viability, T/C [9]: 18.4%
viability, T/C [10]: 19%
viability, T/C [11]: 16.1%
viability, T/C [12]: 113%
viability, T/C [13]: 73.9%
viability, T/C [14]: 34.3%
viability, T/C [15]: 22.8%
viability, T/C [16]: 17.2%
viability, T/C [17]: 16.3%
viability, T/C [18]: 119%
viability, T/C [19]: 76.7%
viability, T/C [20]: 32%
viability, T/C [21]: 23.4%
viability, T/C [22]: 21.6%
viability, T/C [23]: 17.3%
viability, T/C [24]: 128%
viability, T/C [25]: 80.9%
viability, T/C [26]: 37.6%
viability, T/C [27]: 24.1%
viability, T/C [28]: 19.9%
viability, T/C [29]: 21.3%
viability, T/C [30]: 86.5%
viability, T/C [31]: 77.5%
viability, T/C [32]: 35.9%
viability, T/C [33]: 25.7%
viability, T/C [34]: 22.4%
viability, T/C [35]: 20.1%
